The IC50 is the midpoint of a concentration-inhibition curve. As usually defined, the EC50 is the concentration needed to bring the measured effect to its halfway point. In general, bioavailability refers to the share of a dose that reaches the circulation, judged against a reference dose that is usually intravenous.

The values that follow come from US20240166643A1, “IMIDAZO[1,2-A]PYRIDINE COMPOUNDS AND THEIR USE IN THERAPY” (Imperial College Innovations Limited, priority 2020, published 2024).

Like-named read-outs stand apart in the source and are kept apart here. Marks after values point to notes of the source that are not given here.

Data set [1] has as its target Plasmodium vivax (Pv) NMT (Plasmodium vivax (strain Salvador I), UniProt A5K1A2). Nature of the data set: biochemical.
Data set [2] concerns Plasmodium falciparum 3D7. Nature of the data set: SYBR Green assay, Plasmodium falciparum strain 3D7. In kind it is cell-based. The conditions noted are these: P. falciparum strain 3D7, 96 h incubation, read-out: Pf EC50 strain 3D7.
Data set [3] is described as follows: in vitro. Conditions: male, Sprague-Dawley, rat, pooled cryopreserved rat hepatocytes, pH 7.4.
Data set [4] has as its system P. falciparum Pf3D7^0087/N9. Nature of the data set: Mouse malaria model, NODscidIL2Rγnull mice engrafted with human erythrocytes. Conditions: for average parasitemia values: 50 mg/kg po per day on day 3, 4, 5 and 6 post-infection.
Data set [5] concerns the target Human NMT1 (HsNMT1) (Homo sapiens, UniProt P30419). Nature of the data set: biochemical.
Data set [6] in a line: Rat clearance and bioavailability (iv and oral dosing). In kind it is in vivo. The conditions noted are these: male, Sprague-Dawley, plasma; for half-life: iv 1 mg/kg, read-out: Rat iv t1/2 (converted).
The mark [7] stands for this setting: oral 5 mg/kg, cassette dosing of 4 compounds.

Chain of Plasmodium vivax (Pv) NMT (A5K1A2 1-410): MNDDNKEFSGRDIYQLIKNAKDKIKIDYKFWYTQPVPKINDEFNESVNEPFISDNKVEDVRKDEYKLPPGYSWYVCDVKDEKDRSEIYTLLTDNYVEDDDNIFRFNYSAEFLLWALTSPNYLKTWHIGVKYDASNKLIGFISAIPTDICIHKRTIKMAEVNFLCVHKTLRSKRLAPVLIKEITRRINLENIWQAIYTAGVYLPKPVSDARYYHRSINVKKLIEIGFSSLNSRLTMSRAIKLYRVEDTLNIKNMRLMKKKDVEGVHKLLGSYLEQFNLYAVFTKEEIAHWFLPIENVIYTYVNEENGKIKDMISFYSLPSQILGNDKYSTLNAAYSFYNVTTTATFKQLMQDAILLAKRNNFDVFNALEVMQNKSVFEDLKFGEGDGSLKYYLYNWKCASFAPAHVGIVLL
Chain of Human NMT1 (HsNMT1) (P30419 whole entry, looked up): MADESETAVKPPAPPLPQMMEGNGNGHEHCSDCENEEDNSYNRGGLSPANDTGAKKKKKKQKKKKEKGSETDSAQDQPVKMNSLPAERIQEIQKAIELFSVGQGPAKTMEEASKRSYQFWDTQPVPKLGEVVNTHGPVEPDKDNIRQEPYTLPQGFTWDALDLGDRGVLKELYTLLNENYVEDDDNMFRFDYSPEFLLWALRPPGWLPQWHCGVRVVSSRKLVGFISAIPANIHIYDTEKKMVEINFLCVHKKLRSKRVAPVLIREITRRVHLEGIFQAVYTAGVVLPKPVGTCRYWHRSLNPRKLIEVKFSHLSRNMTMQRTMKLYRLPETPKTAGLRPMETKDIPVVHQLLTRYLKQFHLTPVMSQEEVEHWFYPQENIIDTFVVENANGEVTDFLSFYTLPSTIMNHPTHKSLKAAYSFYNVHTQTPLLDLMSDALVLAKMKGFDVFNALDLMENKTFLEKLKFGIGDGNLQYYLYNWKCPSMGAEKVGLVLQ

Take `CN1CCN(c2ncc(Cl)c(N3CCC(C(=O)NC(C)(C)c4cnc5ccccn45)CC3)n2)CC1` [Example 77]: in data set [1], it took 74 nM to reach half-maximal inhibition (IC50). Also, the EC50 in data set [2] was more than 1000 nM. In data set [3], the half-life at 1 µM amounted to 1.49 h.
As to `CCN(CC)CCCC(C)Nc1ccnc2cc(Cl)ccc12` (centres unmarked) [chloroquine, reference compound], the “mice / smears parasite free” value in data set [4] (4×50 mg/kg p.o., day 7) was “parasite-free”.
With `C[C@H]1CN(c2ncc(Cl)c(N3CC(C(=O)NC(C)(C)c4cnc5ccccn45)C3)n2)C[C@H](C)N1C` [Example 95, 1-{5-chloro-2-[(3S,5S)-3,4,5-trimethylpiperazin-1-yl]pyrimidin-4-yl}-N-(2-{imidazo[1,2-a]pyridin-3-yl}propan-2-yl)azetidine-3-carboxamide], the IC50 in data set [5] was found to be 17 nM; in data set [1] it was 34 nM. Moreover, in data set [2], the EC50 came out at 150 nM. This molecule showed a half-life at 1 µM in data set [3] of 1.51 h.
On to `CN1CCN(c2ncc(F)c(N3CC(C(=O)N(C)C(C)(C)c4cnc5ccccn45)C3)n2)CC1` [Example 78], for which the IC50 in data set [5] worked out at 400 nM; in data set [1] it was 120 nM. The EC50 in data set [2] was more than 1000 nM. This molecule also came in with a half-life at 1 µM in data set [3] of more than 3 h. Further, the half-life in data set [6] (cassette dosing of 4 compounds) is 2.3 h. In addition, the bioavailability in data set [6] (setting [7]) came out at 73%.
In the case of `COCC1CN(c2ncc(Cl)c(N3CC(C(=O)NC(C)(C)c4cnc5ccccn45)C3)n2)CCN1C` (centres unmarked) [Example 80], the IC50 amounted to 23 nM in data set [5] and 7.9 nM in data set [1]. In data set [2], the EC50 came out at 97 nM. Further, in data set [3], the half-life at 1 µM turned out to be 0.743 h.
The corresponding values for `CC1CN(c2ncc(F)c(N3CC(C(=O)NC(C)(C)c4cnc5ccccn45)C3)n2)C[C@H](C)N1C` (stereo partly drawn) [Example 96, 1-{5-fluoro-2-[(3S,5S)S-3,4,5-trimethylpiperazin-1-yl]pyrimidin-4-yl}-N-(2-{imidazo[1,2-a]pyridin-3-yl}propan-2-yl)azetidine-3-carboxamide] are 31 nM, 130 nM, more than 910 nM and more than 3 h.
On to `COc1cnc(N2C[C@@H](C)N(C)[C@@H](C)C2)nc1N1CC(C(=O)NC(C)(C)c2cnc3ccccn23)C1` [Example 88, N-(2-{imidazo[1,2-a]pyridin-3-yl}propan-2-yl)-1-{5-methoxy-2-[(3R,5S)-3,4,5-trimethylpiperazin-1-yl]pyrimidin-4-yl}azetidine-3-carboxamide], for which the EC50 in data set [2] was 76 nM. In data set [3], the half-life at 1 µM is more than 3 h.
The molecule `CCN1CCN(c2ncc(Cl)c(N3CC(C(=O)NC(C)(C)c4cnc5ccccn45)C3)n2)CC1` [Example 70] had an IC50 in data set [1] of 8.6 nM. In addition, the EC50 in data set [2] came to 410 nM. The half-life at 1 µM in data set [3] is more than 3 h.
Molecule `Cc1ccc2ncc(C(C)(C)NC(=O)C3CN(c4nc(N5CCN(C)CC5)ncc4Cl)C3)n2c1` [Example 67] registered an IC50 in data set [1] of 5.6 nM. Moreover, in data set [2], the EC50 stood at 120 nM. In data set [3], this molecule showed a half-life at 1 µM of more than 3 h.
With `Cc1cnc(N2CCN(C)CC2)nc1N1CC(C(=O)NC(C)(C)c2cnc3ccccn23)C1` [Example 66], half-maximal inhibition in data set [1] (IC50) required 29 nM. In addition, the EC50 in data set [2] is 320 nM. The molecule also had a half-life at 1 µM in data set [3] of more than 3 h.
Turning to `C[C@@H]1CN(c2ncc(Cl)c(N3CC(C(=O)NC(C)(C)c4cnc5ccccn45)C3)n2)C[C@H](C)N1C` [Example 89, 1-{5-chloro-2-[(3R,5S)-3,4,5-trimethylpiperazin-1-yl]pyrimidin-4-yl}-N-(2-{imidazo[1,2-a]pyridin-3-yl}propan-2-yl)azetidine-3-carboxamide], the results for the IC50 in data set [5] and in data set [1] were 27 nM and 12 nM, respectively. Moreover, in data set [2], the EC50 was found to be 88 nM. This molecule also registered a half-life at 1 µM in data set [3] of more than 3 h.
As to `C[C@@H]1CN(c2ncc(F)c(N3CC(C(=O)NC(C)(C)c4cnc5ccccn45)C3)n2)CCN1C` [Example 84, 1-{2-[(3R)-3,4-dimethylpiperazin-1-yl]-5-fluoropyrimidin-4-yl}-N-(2-{imidazo[1,2-a]pyridin-3-yl}propan-2-yl)azetidine-3-carboxamide], the IC50 in data set [5] is 33 nM; in data set [1], 4.6 nM. In addition, the concentration for a half-maximal effect (EC50) in data set [2] was found to be 34 nM. This molecule also returned a half-life at 1 µM in data set [3] of 2.41 h.
As to `CC1CN(c2ncc(Cl)c(N3CC(C(=O)N(C)C(C)(C)c4cnc5ccccn45)C3)n2)CCN1C` (centres unmarked) [Example 74], the EC50 in data set [2] is 120 nM. In data set [3], this molecule came in with a half-life at 1 µM of more than 3 h. Moreover, in data set [6] (administered as a single compound), the half-life was 2.2 h. In data set [6] (oral 10 mg/kg, administered as a single compound), this molecule came in with a bioavailability of 28%.
On to `CCN(CC)CCCC(C)Nc1ccnc2cc(Cl)ccc12` (centres unmarked) [Chloroquine (CQ), chloroquine, reference compound], for which the average parasitemia values in data set [4] (day 0 post infection) is listed as 0.01%; in data set [4] (day 3 post infection) it was 0.80%; in data set [4] (day 4 post infection), 0.24%; in data set [4] (day 5 post infection), 0.05%; in data set [4] (day 6 post infection), 0.01%; in data set [4] (day 7 post infection), 0.00* %.
For the molecule `C[C@@H]1CN(c2ncc(Cl)c(N3CC(C(=O)NC(C)(C)c4cnc5ccccn45)C3)n2)C[C@H](C)N1` [Example 43], the EC50 in data set [2] was 110 nM. Further, the half-life at 1 µM in data set [3] was more than 3 h.
`CN1CCN(c2ncc(F)c(N3CC(C)(C(=O)NC(C)(C)c4cnc5ccccn45)C3)n2)CC1` [Example 65] gave an IC50 in data set [1] of 90 nM. Further, in data set [2], the EC50 was more than 1000 nM. The half-life at 1 µM in data set [3] was 2.41 h.
For `COc1cnc(N2CCN(C)[C@@H](C)C2)nc1N1CC(C(=O)NC(C)(C)c2cnc3ccccn23)C1` [Example 85, 1-{2-[(3S)-3,4-dimethylpiperazin-1-yl]-5-methoxypyrimidin-4-yl}-N-(2-{imidazo[1,2-a]pyridin-3-yl}propan-2-yl)azetidine-3-carboxamide], the IC50 in data set [5] amounted to 6.3 nM; in data set [1] it was 8 nM. Further, the half-maximal effective concentration (EC50) in data set [2] turned out to be 14 nM. This molecule also displayed a half-life at 1 µM in data set [3] of more than 3 h.
Consider `C[C@H]1CN(C)CCN1c1ncc(F)c(N2CC(C(=O)N(C)C(C)(C)c3cnc4ccccn34)C2)n1` [Example 108, 1-{2-[(2S)-2,4-dimethylpiperazin-1-yl]-5-fluoropyrimidin-4-yl}-N-(2-{imidazo[1,2-a]pyridin-3-yl}propan-2-yl)-N-methylazetidine-3-carboxamide], for which, in data set [2], the EC50 came out at 200 nM. In data set [3], the half-life at 1 µM amounted to 0.967 h.
For the molecule `CN1CCN(c2cc(N3CC(C(=O)NC(C)(C)c4cnc5ccccn45)C3)c(F)cn2)CC1` [Example 4, 1-[5-fluoro-2-(4-methylpiperazin-1-yl)pyridin-4-yl]-N-(2-{imidazo[1,2-a]pyridin-3-yl}propan-2-yl)azetidine-3-carboxamide], the EC50 in data set [2] was 100 nM. The half-life at 1 µM in data set [3] was more than 3 h.
Consider `Cc1ccc2ncc(C(C)(C)NC(=O)C3CN(c4nc(N5CCN(C)CC5)ncc4F)C3)n2c1` [Example 60], for which the IC50 in data set [1] worked out at 110 nM. In data set [2], the EC50 is 240 nM. The half-life at 1 µM in data set [3] amounted to 2.41 h.
Turning to `C[C@H]1CN(C)CCN1c1ncc(Cl)c(N2CC(C(=O)N(C)C(C)(C)c3cnc4ccccn34)C2)n1` [Example 107, 1-{5-chloro-2-[(2S)-2,4-dimethylpiperazin-1-yl]pyrimidin-4-yl}-N-(2-{imidazo[1,2-a]pyridin-3-yl}propan-2-yl)-N-methylazetidine-3-carboxamide], the EC50 in data set [2] came to 140 nM. In data set [6] (cassette dosing of 4 compounds), the half-life was 1.7 h. This molecule came in with a bioavailability in data set [6] (setting [7]) of 37%.
In the case of `C[C@@H]1CN(c2ncc(F)c(N3CC(C(=O)NC(C)(C)c4cnc5ccccn45)C3)n2)C[C@H](C)N1` [Example 44], the IC50 was determined as 120 nM in data set [5] and 32 nM in data set [1]. The EC50 in data set [2] was determined as 540 nM. In addition, the half-life at 1 µM in data set [3] is more than 3 h.
As to `CN1CCN(c2ncc(Cl)c(N3CC(C(=O)N(C)C(C)(C)c4cnc5ccccn45)C3)n2)CC1` [Example 73], the EC50 in data set [2] worked out at 810 nM. Moreover, in data set [3], the half-life at 1 µM was more than 3 h. For the same molecule, the half-life in data set [6] (cassette dosing of 4 compounds) was 3.6 h. For the same molecule, the bioavailability in data set [6] (setting [7]) amounted to 65%.
Take `CC(C)N1CCN(c2ncc(Cl)c(N3CC(C(=O)NC(C)(C)c4cnc5ccccn45)C3)n2)CC1` [Example 71]: the 50% inhibitory concentration (IC50) in data set [5] was determined as 72 nM; in data set [1], 11 nM. For the same molecule, the EC50 in data set [2] was determined as 560 nM. Further, in data set [3], the half-life at 1 µM is more than 3 h.
`C[C@@H]1CN(c2ncc(F)c(N3CC(C(=O)NC(C)(C)c4cnc5ccccn45)C3)n2)C[C@H](C)N1C` [Example 90, 1-{5-fluoro-2-[(3R,5S)-3,4,5-trimethylpiperazin-1-yl]pyrimidin-4-yl}-N-(2-{imidazo[1,2-a]pyridin-3-yl}propan-2-yl)azetidine-3-carboxamide]: the IC50 in data set [5] turned out to be 94 nM; in data set [1] it was 19 nM. In addition, the EC50 in data set [2] was found to be 300 nM. Moreover, in data set [3], the half-life at 1 µM is more than 3 h.
Regarding `CN1CCN(c2ncc(F)c(N3CC(C(=O)NC(C)(C)c4cnc5c(F)cccn45)C3)n2)CC1` [Example 61], half-maximal inhibition in data set [1] (IC50) required 13 nM. In addition, the EC50 in data set [2] amounted to 260 nM. In data set [3], this molecule yielded a half-life at 1 µM of more than 3 h.
